According to PubChem BioAssay AID1671292:

Biological target: Homeodomain-interacting protein kinase 1 (Homo sapiens) (UniProt Q86Z02)
Test: HIPK1 kinase inhibitors, dose response, biochemical, Z'-LYTE, FRET, protease-coupled, direct format (AID 1671292)
Conditions: Z'-LYTE FRET kinase assay, recombinant HIPK1

Sequence of Homeodomain-interacting protein kinase 1 (Homo sapiens) (Q86Z02 whole entry, looked up): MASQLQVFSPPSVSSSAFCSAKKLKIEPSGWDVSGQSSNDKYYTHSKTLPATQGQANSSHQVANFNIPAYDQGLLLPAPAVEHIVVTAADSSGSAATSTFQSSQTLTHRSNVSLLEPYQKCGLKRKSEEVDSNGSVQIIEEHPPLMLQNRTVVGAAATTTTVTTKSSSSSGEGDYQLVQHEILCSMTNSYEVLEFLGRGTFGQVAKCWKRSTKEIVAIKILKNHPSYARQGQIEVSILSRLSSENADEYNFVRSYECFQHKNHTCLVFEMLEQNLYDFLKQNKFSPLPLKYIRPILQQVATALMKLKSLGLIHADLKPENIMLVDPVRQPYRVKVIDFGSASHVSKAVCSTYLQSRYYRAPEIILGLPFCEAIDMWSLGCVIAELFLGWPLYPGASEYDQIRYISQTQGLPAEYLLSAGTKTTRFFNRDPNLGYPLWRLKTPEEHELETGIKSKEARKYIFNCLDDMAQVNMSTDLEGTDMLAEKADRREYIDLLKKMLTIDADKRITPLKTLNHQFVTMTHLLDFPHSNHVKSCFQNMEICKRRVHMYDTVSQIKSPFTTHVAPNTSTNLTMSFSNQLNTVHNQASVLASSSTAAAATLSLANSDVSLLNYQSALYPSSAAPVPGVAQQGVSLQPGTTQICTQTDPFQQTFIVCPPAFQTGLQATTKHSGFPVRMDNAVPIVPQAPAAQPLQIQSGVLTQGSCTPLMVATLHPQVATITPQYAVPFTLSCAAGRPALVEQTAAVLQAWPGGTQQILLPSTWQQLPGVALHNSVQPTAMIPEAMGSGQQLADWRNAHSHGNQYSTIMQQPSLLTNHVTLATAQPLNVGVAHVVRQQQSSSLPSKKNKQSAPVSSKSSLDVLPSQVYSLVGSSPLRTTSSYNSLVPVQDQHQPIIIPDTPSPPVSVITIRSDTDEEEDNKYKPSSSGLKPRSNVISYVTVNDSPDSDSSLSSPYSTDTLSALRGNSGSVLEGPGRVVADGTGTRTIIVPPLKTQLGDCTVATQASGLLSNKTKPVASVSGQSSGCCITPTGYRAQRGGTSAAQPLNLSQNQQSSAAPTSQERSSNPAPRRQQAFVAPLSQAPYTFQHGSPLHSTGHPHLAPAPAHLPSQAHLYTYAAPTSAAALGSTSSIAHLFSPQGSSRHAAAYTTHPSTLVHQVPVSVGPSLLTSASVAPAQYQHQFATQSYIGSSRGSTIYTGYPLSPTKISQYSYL

IC50: 4.47 µM
SMILES: Brc1c(Br)c(Br)c2n[nH]nc2c1Br
